From US12221448B2, “Selective PI3Kδ inhibitor and use thereof” (TARAPEUTICS SCIENCE INC., priority 2018, dated 2025) come the findings set out here.

In general, IC50 refers to the concentration needed to halve the response being measured.

What all share (type): biochemical
In one test the target is T1, PI3Kβ (Homo sapiens, UniProt P42338).
T1 construct: purchased sigma (US)
As to the kind of experiment: In vitro enzyme activity (ADP-Glo) against PI3Kβ. To be noted: Table 2; ATP 10 μM, PIP2:PS 50 μM; read-out: IC50 against PI3Kβ. On the procedure:
(§1) In vitro enzyme activity experiments were performed to determine the IC50 values of the compounds against PI3K family type I kinases (PI3Kα, PI3Kβ, PI3Kγ, PI3Kδ) and type II kinases (PIK3C2A, PIK3C2B). Protein kinases PI3Kα, PI3Kγ, PI3Kδ, PIK3C2A, and PIK3C2B were all purchased from Invitrogen (US); protein kinase PI3Kβ was purchased from sigma (US); the three substrates PIP2: PS, PI and PI: PS were purchased from Invitrogen (US).
(§2) Protein kinases diluted to a certain concentration, i.e., PI3Kα 5.4 μL (with a final concentration of 0.16 ng/μL), PI3Kβ 5.4 μL (with a final concentration of 6 ng/μL), PI3Kδ 5.4 μL (with a final concentration of 1 ng/μL), PI3Kγ 5.4 μL (with a final concentration of 5 ng/μL), PIK3C2A 5.4 μL (with a final concentration of 5 ng/μL), and PIK3C2B 5.4 μL (with a final concentration of 10 ng/μL) were respectively reacted with 1 μL of the serially diluted drug compounds for 1 hour at room temperature (final drug concentrations were 10 μM, 1 μM, 0.3 μM, 0.1 μM, 0.03 μM, 0.01 μM, 0.003 μM, and 0.001 μM, respectively).
(§3) To each reaction tube of the above PI3K family type I kinases, 6 μL of a mixture of ATP (Promega, US) and substrate PIP2:PS (final concentrations of ATP in the reaction systems of kinases PI3Kα, and PI3Kβ were 10 μM, and final concentrations of ATP in the reaction systems of kinases PI3Kδ, and PI3Kγ were 50 μM, and final concentrations of the substrate PIP2:PS were all 50 μM) was added, and reacted at 37° C. for 1 hour. The reaction buffer was 50 mM Hepes (pH 7.5) (Promega, USA), 3 mM MgCl2, 1 mM EGTA (Promega, US), 100 mM NaCl, 0.03% CHAPS (Promega, US).
(§4) 5 μL of kinase solution after reaction was placed in a 384-well plate (Corning, US), and 5 μL of ADP-Glo™ reagent (Promega, US) was added thereto and reacted at room temperature for 40 minutes to stop the kinase reaction and exhaust the remaining ATP; 10 μL of kinase detection reagent was added to convert ADP into ATP, and coupled luciferase/luciferin reaction was utilized to detect the newly synthesized ATP. Envision was utilized for readout and plotting, and Graphpad IC50 value was calculated.
A general note: In ADP-Glo the light output rises with the ADP produced.

A further test concerns the target T2, PI3Kα (Homo sapiens, UniProt P42336).
T2 construct: purchased Invitrogen (US)
As to the kind of experiment: In vitro enzyme activity (ADP-Glo) against PI3Kα. The note with it: Table 2; ATP 10 μM, PIP2:PS 50 μM. On the procedure: as §1, §2, §3, §4

A further test concerns the target T3, PI3Kγ (Homo sapiens, UniProt P48736).
T3 construct: purchased Invitrogen (US)
As to the kind of experiment: In vitro enzyme activity (ADP-Glo) against PI3Kγ. To be noted: Table 2; ATP 50 μM, PIP2:PS 50 μM; read-out: IC50 against PI3Kγ. The protocol: as §1, §2, §3, §4

A further test addresses T4, PI3Kδ (Homo sapiens, UniProt O00329).
T4 construct: purchased Invitrogen (US)
Put plainly: In vitro enzyme activity (ADP-Glo) against PI3Kδ. The note with it: Table 2; ATP 50 μM, PIP2:PS 50 μM. The protocol:
as §1, §2, §3, §4

T3 sequence (P48736 whole entry): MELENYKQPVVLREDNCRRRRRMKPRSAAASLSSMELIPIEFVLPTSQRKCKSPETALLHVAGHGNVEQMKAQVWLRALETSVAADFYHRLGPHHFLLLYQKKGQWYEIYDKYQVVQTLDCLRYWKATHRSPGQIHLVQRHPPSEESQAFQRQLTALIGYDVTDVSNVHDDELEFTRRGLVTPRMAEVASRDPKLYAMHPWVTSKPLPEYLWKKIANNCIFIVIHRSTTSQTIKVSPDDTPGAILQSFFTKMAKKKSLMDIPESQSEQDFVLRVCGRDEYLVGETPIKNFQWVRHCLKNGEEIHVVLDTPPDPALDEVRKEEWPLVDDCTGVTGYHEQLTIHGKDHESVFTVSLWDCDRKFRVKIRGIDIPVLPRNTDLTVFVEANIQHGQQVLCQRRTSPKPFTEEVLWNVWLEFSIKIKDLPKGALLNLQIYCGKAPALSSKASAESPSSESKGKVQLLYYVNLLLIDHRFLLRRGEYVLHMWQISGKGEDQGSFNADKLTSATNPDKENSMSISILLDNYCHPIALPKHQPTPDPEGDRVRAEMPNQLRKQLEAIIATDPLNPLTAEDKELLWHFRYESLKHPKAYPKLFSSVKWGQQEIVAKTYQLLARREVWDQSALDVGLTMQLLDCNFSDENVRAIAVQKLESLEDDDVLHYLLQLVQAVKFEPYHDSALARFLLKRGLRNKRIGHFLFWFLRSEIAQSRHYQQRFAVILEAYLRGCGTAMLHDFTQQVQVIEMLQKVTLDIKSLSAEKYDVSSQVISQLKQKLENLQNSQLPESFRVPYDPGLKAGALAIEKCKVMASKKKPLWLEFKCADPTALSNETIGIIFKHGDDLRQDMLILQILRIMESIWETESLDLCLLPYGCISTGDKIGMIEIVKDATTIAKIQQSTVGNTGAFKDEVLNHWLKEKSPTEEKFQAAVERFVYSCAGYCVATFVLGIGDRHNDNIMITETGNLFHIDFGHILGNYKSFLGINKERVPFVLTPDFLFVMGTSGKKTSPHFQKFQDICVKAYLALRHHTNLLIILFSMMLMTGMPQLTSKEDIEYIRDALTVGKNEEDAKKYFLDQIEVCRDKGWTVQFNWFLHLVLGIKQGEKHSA
T2 sequence (P42336 whole entry): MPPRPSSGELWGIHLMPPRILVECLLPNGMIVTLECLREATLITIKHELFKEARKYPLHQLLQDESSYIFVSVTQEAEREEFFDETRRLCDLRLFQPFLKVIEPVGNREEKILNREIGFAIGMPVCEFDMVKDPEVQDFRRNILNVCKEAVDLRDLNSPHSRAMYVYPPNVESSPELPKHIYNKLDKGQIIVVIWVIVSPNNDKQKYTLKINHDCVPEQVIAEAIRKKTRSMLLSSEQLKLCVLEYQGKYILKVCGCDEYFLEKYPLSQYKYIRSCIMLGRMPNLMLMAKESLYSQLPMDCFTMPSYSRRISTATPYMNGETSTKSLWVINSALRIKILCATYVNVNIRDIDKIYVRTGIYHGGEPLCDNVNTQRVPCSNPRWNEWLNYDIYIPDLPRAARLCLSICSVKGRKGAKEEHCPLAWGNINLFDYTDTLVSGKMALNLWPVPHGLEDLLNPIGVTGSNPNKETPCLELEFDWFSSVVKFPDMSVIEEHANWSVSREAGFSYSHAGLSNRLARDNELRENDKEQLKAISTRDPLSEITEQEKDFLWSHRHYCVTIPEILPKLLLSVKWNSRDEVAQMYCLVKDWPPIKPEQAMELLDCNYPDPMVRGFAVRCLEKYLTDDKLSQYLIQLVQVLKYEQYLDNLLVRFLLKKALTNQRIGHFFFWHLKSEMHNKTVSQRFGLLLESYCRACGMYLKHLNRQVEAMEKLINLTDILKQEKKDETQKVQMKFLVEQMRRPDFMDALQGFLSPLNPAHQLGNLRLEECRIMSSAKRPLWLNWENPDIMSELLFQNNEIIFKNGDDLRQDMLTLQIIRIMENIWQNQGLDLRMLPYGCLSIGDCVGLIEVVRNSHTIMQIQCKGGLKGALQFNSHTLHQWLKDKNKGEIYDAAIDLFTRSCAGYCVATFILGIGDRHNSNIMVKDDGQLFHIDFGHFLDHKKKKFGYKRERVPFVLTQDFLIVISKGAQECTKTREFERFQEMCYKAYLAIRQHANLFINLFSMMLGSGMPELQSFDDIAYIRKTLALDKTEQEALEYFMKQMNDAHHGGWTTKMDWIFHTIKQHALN
T2 sequence (P27986 whole entry partner): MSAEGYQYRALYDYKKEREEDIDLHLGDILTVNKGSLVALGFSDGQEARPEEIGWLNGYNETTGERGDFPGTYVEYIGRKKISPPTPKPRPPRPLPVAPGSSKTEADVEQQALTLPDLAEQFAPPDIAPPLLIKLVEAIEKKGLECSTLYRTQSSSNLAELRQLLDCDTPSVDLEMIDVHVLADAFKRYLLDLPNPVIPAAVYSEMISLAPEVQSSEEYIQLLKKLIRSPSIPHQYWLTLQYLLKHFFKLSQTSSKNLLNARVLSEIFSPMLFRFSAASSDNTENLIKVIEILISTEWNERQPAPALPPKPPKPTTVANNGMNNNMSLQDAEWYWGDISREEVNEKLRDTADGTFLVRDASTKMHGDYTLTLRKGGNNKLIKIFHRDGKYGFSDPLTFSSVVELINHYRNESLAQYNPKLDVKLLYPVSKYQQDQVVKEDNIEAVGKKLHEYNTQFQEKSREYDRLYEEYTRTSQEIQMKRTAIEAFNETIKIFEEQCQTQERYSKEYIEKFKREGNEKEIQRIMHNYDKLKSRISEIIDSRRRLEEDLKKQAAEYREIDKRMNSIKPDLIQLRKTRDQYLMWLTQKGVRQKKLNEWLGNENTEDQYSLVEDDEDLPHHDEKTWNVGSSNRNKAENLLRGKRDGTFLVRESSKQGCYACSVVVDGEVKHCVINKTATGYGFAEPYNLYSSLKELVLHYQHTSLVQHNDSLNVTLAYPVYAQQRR
T4 sequence (O00329 whole entry): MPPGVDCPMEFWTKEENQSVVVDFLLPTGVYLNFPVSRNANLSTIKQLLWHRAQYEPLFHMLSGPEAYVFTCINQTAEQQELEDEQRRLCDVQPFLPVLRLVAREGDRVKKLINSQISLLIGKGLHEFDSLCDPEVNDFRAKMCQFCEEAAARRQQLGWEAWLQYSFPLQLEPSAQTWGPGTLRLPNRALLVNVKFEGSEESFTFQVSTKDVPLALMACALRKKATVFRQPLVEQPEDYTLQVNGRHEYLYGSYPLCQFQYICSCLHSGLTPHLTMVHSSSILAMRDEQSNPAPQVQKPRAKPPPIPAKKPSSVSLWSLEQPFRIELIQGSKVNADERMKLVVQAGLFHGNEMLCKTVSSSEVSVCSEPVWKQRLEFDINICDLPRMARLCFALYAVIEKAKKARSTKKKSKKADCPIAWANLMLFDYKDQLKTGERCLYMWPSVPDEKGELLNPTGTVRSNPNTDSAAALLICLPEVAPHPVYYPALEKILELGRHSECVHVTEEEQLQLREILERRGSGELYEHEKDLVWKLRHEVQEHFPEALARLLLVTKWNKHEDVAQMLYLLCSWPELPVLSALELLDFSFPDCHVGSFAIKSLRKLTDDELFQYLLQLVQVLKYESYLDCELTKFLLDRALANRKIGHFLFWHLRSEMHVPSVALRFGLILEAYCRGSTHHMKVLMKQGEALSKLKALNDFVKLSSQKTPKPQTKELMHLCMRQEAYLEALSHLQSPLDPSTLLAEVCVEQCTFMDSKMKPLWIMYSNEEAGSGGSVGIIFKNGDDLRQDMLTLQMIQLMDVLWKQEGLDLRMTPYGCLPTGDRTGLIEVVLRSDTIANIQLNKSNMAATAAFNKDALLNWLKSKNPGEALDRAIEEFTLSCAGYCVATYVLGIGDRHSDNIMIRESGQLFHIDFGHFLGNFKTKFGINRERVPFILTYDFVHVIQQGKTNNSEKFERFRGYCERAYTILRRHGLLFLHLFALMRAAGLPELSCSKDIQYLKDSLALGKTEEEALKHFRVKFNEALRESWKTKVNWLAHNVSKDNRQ
T4 sequence (P27986 whole entry partner): as the sequence (P27986 whole entry partner) above
T1 sequence (P42338 whole entry): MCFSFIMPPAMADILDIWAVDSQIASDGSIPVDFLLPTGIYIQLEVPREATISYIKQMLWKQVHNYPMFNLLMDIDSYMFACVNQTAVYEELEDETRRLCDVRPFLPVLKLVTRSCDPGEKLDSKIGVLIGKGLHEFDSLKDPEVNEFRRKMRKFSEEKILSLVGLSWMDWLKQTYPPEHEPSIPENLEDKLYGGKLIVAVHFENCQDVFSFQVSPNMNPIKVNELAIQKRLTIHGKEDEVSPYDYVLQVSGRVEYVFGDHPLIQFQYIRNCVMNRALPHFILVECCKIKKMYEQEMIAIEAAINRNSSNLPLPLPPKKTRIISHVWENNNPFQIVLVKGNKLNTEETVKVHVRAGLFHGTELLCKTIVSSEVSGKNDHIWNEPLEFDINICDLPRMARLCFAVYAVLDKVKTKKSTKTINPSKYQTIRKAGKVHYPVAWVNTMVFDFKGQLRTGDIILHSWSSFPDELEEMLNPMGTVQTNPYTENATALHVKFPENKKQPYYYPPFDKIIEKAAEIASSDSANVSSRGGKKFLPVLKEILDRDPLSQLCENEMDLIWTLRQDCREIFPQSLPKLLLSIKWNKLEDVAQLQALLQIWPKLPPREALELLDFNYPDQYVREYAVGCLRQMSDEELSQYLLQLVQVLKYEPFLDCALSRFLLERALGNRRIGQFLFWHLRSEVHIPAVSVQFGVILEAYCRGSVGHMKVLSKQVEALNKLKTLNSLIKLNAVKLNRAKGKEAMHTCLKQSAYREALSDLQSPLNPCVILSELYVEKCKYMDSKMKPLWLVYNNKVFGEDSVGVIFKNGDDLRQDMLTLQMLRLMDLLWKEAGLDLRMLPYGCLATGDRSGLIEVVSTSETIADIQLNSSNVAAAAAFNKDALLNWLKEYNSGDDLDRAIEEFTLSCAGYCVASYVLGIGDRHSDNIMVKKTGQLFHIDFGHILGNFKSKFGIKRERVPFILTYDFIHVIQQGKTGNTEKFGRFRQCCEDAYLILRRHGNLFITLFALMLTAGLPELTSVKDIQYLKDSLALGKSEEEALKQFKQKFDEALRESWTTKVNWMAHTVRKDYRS
T1 sequence (P27986 whole entry partner): as the sequence (P27986 whole entry partner) above

`COc1ccc(-c2nn(C(C)c3nc4ccc(F)cc4c(=O)n3C3CC3)c3ncnc(N)c23)cc1` (stereo not drawn) [Compound 42, 2-(1-(4-amino-3-(4-methoxyphenyl)-1H-pyrazolo [3,4-d]pyrimidin-1-yl)ethyl)-3-cyclopropyl-6-fluoroquinazolin-4(3H)-one]: the IC50 on PI3Kβ came to 0.69 µM; on PI3Kα it was 3.77 µM; at PI3Kγ, 0.576 µM; against PI3Kδ, 0.0083 µM.

For the molecule `COc1ccc(-c2nn(C(C)c3nc4ccccc4c(=O)n3C3CCC3)c3ncnc(N)c23)cc1OC` (stereo not drawn) [Compound 38, 2-(1-(4-amino-3-(3,4-dimethoxyphenyl)-1H-pyrazolo [3,4-d]pyrimidin-1-yl)ethyl)-3-cyclobutylquinazolin-4(3H)-one], the IC50 on PI3Kβ is 0.581 µM; on PI3Kα, 2.23 µM; on PI3Kγ it was 0.261 µM; against PI3Kδ it was 0.00959 µM.

`COc1ccc(-c2nn(C(C)c3nc4cccc(F)c4c(=O)n3C3CCCC3)c3ncnc(N)c23)cc1` (stereo not drawn) [Compound 14, 2-(1-(4-amino-3-(4-methoxyphenyl)-1H-pyrazolo [3,4-d]pyrimidin-1-yl)ethyl)-3-cyclopentyl-5-fluoroquinazolin-4(3H)-one]: the IC50 on PI3Kβ was greater than 10 µM; at PI3Kγ, greater than 10 µM; at PI3Kδ, 0.0319 µM.

Take `COc1ccc(-c2nn(C(C)c3nc4cccc(F)c4c(=O)n3C3CCC3)c3ncnc(N)c23)cc1OC` (stereo not drawn) [Compound 27, 2-(1-(4-amino-3-(3,4-dimethoxyphenyl)-1H-pyrazolo [3,4-d]pyrimidin-1-yl)ethyl)-3-cyclobutyl-5-fluoroquinazolin-4(3H)-one]: the IC50 at PI3Kα amounted to 1.1 µM; at PI3Kγ, 0.434 µM; on PI3Kδ, 0.0103 µM.

With `COc1ccc(-c2nn(Cc3nc4cccc(F)c4c(=O)n3C3CC3)c3ncnc(N)c23)cc1F` [Compound 6, 2-((4-amino-3-(3-fluoro-4-methoxyphenyl)-1H-pyrazolo [3,4-d]pyrimidin-1-yl)methyl)-3-cyclopropyl-5-fluoroquinazolin-4(3H)-one], the IC50 at PI3Kβ was 0.523 µM; at PI3Kα it was 1.69 µM; on PI3Kγ, 0.299 µM; against PI3Kδ, 0.031 µM.

Consider `CCC(c1nc2ccc(F)cc2c(=O)n1C1CC1)n1nc(-c2ccc(OC)c(F)c2)c2c(N)ncnc21` (stereo not drawn) [Compound 23, 2-(1-(4-amino-3-(3-fluoro-4-methoxyphenyl)-1H-pyrazolo [3,4-d]pyrimidin-1-yl)propyl)-3-cyclopropyl-6-fluoroquinazolin-4(3H)-one], for which the IC50 on PI3Kβ was 0.999 µM; on PI3Kα it was 6.44 µM; at PI3Kγ, 0.922 µM; against PI3Kδ, 0.0095 µM.

As for `COc1ccc(-c2nn(C(C)c3nc4ccccc4c(=O)n3C3CCC3)c3ncnc(N)c23)cc1` (stereo not drawn) [Compound 37, 2-(1-(4-amino-3-(4-methoxyphenyl)-1H-pyrazolo [3,4-d]pyrimidin-1-yl)ethyl)-3-cyclobutylquinazolin-4(3H)-one], the concentration for half-maximal inhibition (IC50) at PI3Kβ is 3.28 µM; on PI3Kα, 4.21 µM; on PI3Kγ, 0.753 µM; against PI3Kδ it was 0.001 µM.

Take `COc1ccc(-c2nn(C(C)c3nc4ccc(F)cc4c(=O)n3C3CC3)c3ncnc(N)c23)cc1F` (stereo not drawn) [Compound 22, 2-(1-(4-amino-3-(3-fluoro-4-methoxyphenyl)-1H-pyrazolo [3,4-d]pyrimidin-1-yl)ethyl)-3-cyclopropyl-6-fluoroquinazolin-4(3H)-one]: the IC50 at PI3Kβ turned out to be 0.344 µM; against PI3Kα, 1.69 µM; on PI3Kγ, 0.485 µM; at PI3Kδ, 0.0041 µM.

On to `COc1ccc(-c2nn(C(C)c3nc4ccccc4c(=O)n3C3CC3)c3ncnc(N)c23)cc1F` (stereo not drawn) [Compound 10, 2-(1-(4-amino-3-(3-fluoro-4-methoxyphenyl)-1H-pyrazolo [3,4-d]pyrimidin-1-yl)ethyl)-3-cyclopropylquinazolin-4(3H)-one], for which the IC50 at PI3Kβ worked out at 0.122 µM; at PI3Kγ, 0.103 µM; against PI3Kδ, 0.0064 µM.

As for `CCC(c1nc2ccccc2c(=O)n1C1CC1)n1nc(-c2ccc(OC)c(F)c2)c2c(N)ncnc21` (stereo not drawn) [Compound 11, 2-(1-(4-amino-3-(3-fluoro-4-methoxyphenyl)-1H-pyrazolo [3,4-d]pyrimidin-1-yl)propyl)-3-cyclopropylquinazolin-4(3H)-one], the IC50 turned out to be 0.27 µM on PI3Kβ, 0.389 µM on PI3Kγ and 0.0183 µM against PI3Kδ.

Consider `COc1ccc(-c2nn(C(C)c3nc4cccc(F)c4c(=O)n3C3CCC3)c3ncnc(N)c23)cc1F` (stereo not drawn) [Compound 1, 2-(1-(4-amino-3-(3-fluoro-4-methoxyphenyl)-1H-pyrazolo [3,4-d]pyrimidin-1-yl)ethyl)-3-cyclobutyl-5-fluoroquinazolin-4(3H)-one], for which the IC50 came to 2.96 µM at PI3Kβ, 7.41 µM on PI3Kα, 4.09 µM at PI3Kγ and 0.0274 µM on PI3Kδ.

`COc1ccc(-c2nn(C(C)c3nc4cccc(F)c4c(=O)n3C3CCC3)c3ncnc(N)c23)cc1` (stereo not drawn) [Compound 19, 2-(1-(4-amino-3-(4-methoxyphenyl)-1H-pyrazolo [3,4-d]pyrimidin-1-yl)ethyl)-3-cyclobutyl-5-fluoroquinazolin-4(3H)-one]: the IC50 on PI3Kβ is 0.547 µM; at PI3Kγ, 0.689 µM; against PI3Kδ, 0.0379 µM.

With `COc1ccc(-c2nn(C(C)c3nc4cccc(F)c4c(=O)n3C3CCCC3)c3ncnc(N)c23)cc1F` (stereo not drawn) [Compound 5, 2-(1-(4-amino-3-(3-fluoro-4-methoxyphenyl)-1H-pyrazolo [3,4-d]pyrimidin-1-yl)ethyl)-3-cyclopentyl-5-fluoroquinazolin-4(3H)-one], the IC50 is greater than 10 µM on PI3Kβ, 5.52 µM against PI3Kα, 1.72 µM at PI3Kγ and 0.0186 µM against PI3Kδ.

On to `COc1ccc(-c2nn(C(C)c3nc4cccc(F)c4c(=O)n3C3CC3)c3ncnc(N)c23)cc1F` (stereo not drawn) [Compound 8, 2-(1-(4-amino-3-(3-fluoro-4-methoxyphenyl)-1H-pyrazolo [3,4-d]pyrimidin-1-yl)ethyl)-3-cyclopropyl-5-fluoroquinazolin-4(3H)-one], for which the half-inhibitory concentration (IC50) stood at 1.3 µM on PI3Kβ, 1.72 µM on PI3Kα, 0.148 µM at PI3Kγ and 0.014 µM against PI3Kδ.

As to `CC[C@@H](c1nc2cccc(F)c2c(=O)n1C1CC1)n1nc(-c2ccc(OC)c(F)c2)c2c(N)ncnc21` [Compound 81, 2-((S)-1-(4-amino-3-(3-fluoro-4-methoxyphenyl)-1H-pyrazolo [3,4-d]pyrimidin-1-yl)propyl)-3-cyclopropyl-5-fluoroquinazolin-4(3H)-one], the values for the IC50 on PI3Kβ, on PI3Kγ and at PI3Kδ were 0.79 µM, 0.471 µM and 0.0164 µM, respectively.
